Test results: the NIST ThermoML archive (doi:10.1016/j.jct.2012.01.019)
Numbers after ± are expanded uncertainties.

Experiment: activity coefficient (dimensionless); of the first substance listed, at infinite dilution; xn = mol fraction of the nth substance listed
Settings: 101 kPa, Liquid, Chromatography, x1 = 0

| Compound | activity coefficient (318.15 K) | activity coefficient (328.15 K) | activity coefficient (338.15 K) | activity coefficient (348.15 K) | activity coefficient (358.15 K) | activity coefficient (368.15 K) |
| --- | --- | --- | --- | --- | --- | --- |
| Cc1ccccc1C [1,2-dimethylbenzene] + COCC[N+]1(C)CCCCC1.O=S(=O)([N-]S(=O)(=O)C(F)(F)F)C(F)(F)F | 1.66 ± 0.11 | 1.68 ± 0.11 | 1.69 ± 0.11 | 1.71 ± 0.11 | 1.72 ± 0.12 | 1.73 ± 0.12 |
| Cc1cccc(C)c1 [1,3-dimethylbenzene] + COCC[N+]1(C)CCCCC1.O=S(=O)([N-]S(=O)(=O)C(F)(F)F)C(F)(F)F | 1.8 ± 0.12 | 1.81 ± 0.12 | 1.82 ± 0.12 | 1.83 ± 0.12 | 1.85 ± 0.12 | 1.86 ± 0.13 |
| Cc1ccc(C)cc1 [1,4-dimethylbenzene] + COCC[N+]1(C)CCCCC1.O=S(=O)([N-]S(=O)(=O)C(F)(F)F)C(F)(F)F | 1.08 ± 0.07 | 1.1 ± 0.07 | 1.13 ± 0.07 | 1.14 ± 0.07 | 1.16 ± 0.07 | 1.19 ± 0.08 |
| C1COCCO1 [1,4-dioxane] + COCC[N+]1(C)CCCCC1.O=S(=O)([N-]S(=O)(=O)C(F)(F)F)C(F)(F)F | 0.616 ± 0.043 | 0.636 ± 0.044 | 0.654 ± 0.045 | 0.673 ± 0.046 | 0.687 ± 0.046 | 0.705 ± 0.047 |
| C=CCCCCCCCC [1-decene] + COCC[N+]1(C)CCCCC1.O=S(=O)([N-]S(=O)(=O)C(F)(F)F)C(F)(F)F | 36.2 ± 2.5 | 33.7 ± 2.3 | 31.4 ± 2.1 | 29.2 ± 2 | 27.4 ± 1.9 | 26 ± 1.8 |
| C=CCCCCC [1-heptene] + COCC[N+]1(C)CCCCC1.O=S(=O)([N-]S(=O)(=O)C(F)(F)F)C(F)(F)F | 12.4 ± 0.8 | 11.9 ± 0.8 | 11.4 ± 0.8 | 10.8 ± 0.7 | 10.4 ± 0.7 | 9.99 ± 0.68 |
| C#CCCCCC [1-heptyne] + COCC[N+]1(C)CCCCC1.O=S(=O)([N-]S(=O)(=O)C(F)(F)F)C(F)(F)F | 4.22 ± 0.29 | 4.21 ± 0.29 | 4.19 ± 0.29 | 4.17 ± 0.28 | 4.15 ± 0.28 | 4.15 ± 0.28 |
| C#CCCCC [1-hexyne] + COCC[N+]1(C)CCCCC1.O=S(=O)([N-]S(=O)(=O)C(F)(F)F)C(F)(F)F | 2.98 ± 0.2 | 2.99 ± 0.2 | 3 ± 0.2 | 3.01 ± 0.2 | 3.02 ± 0.21 | 3.03 ± 0.21 |
| CCC[N+](=O)[O-] [1-nitropropane] + COCC[N+]1(C)CCCCC1.O=S(=O)([N-]S(=O)(=O)C(F)(F)F)C(F)(F)F | 0.724 ± 0.048 | 0.725 ± 0.048 | 0.726 ± 0.048 | 0.727 ± 0.048 | 0.727 ± 0.048 | 0.728 ± 0.048 |
| C#CCCCCCC [1-octyne] + COCC[N+]1(C)CCCCC1.O=S(=O)([N-]S(=O)(=O)C(F)(F)F)C(F)(F)F | 6.02 ± 0.41 | 5.92 ± 0.4 | 5.85 ± 0.4 | 5.77 ± 0.39 | 5.7 ± 0.39 | 5.63 ± 0.38 |
| C=CCCC [1-pentene] + COCC[N+]1(C)CCCCC1.O=S(=O)([N-]S(=O)(=O)C(F)(F)F)C(F)(F)F | 6.03 ± 0.41 | 5.9 ± 0.4 | 5.73 ± 0.39 | 5.6 ± 0.38 | 5.46 ± 0.37 | 5.36 ± 0.37 |
| CC(C)CC(C)(C)C [2,2,4-trimethylpentane] + COCC[N+]1(C)CCCCC1.O=S(=O)([N-]S(=O)(=O)C(F)(F)F)C(F)(F)F | 23.7 ± 1.1 | 22.3 ± 1 | 20.9 ± 1 | 19.7 ± 0.9 | 18.5 ± 0.9 | 17.6 ± 0.8 |
| CCC(C)(C)C [2,2-dimethylbutane] + COCC[N+]1(C)CCCCC1.O=S(=O)([N-]S(=O)(=O)C(F)(F)F)C(F)(F)F | 13.5 ± 0.6 | 12.9 ± 0.6 | 12.4 ± 0.6 | 11.8 ± 0.5 | 11.3 ± 0.5 | 10.9 ± 0.5 |
| CCOC(C)(C)C [2-ethoxy-2-methylpropane] + COCC[N+]1(C)CCCCC1.O=S(=O)([N-]S(=O)(=O)C(F)(F)F)C(F)(F)F | 5.82 ± 0.4 | 5.71 ± 0.39 | 5.62 ± 0.38 | 5.53 ± 0.38 | 5.44 ± 0.37 | 5.38 ± 0.37 |
| CCC(C)(C)OC [2-methoxy-2-methylbutane] + COCC[N+]1(C)CCCCC1.O=S(=O)([N-]S(=O)(=O)C(F)(F)F)C(F)(F)F | 3.74 ± 0.25 | 3.74 ± 0.25 | 3.73 ± 0.25 | 3.73 ± 0.25 | 3.73 ± 0.25 | 3.72 ± 0.25 |
| COC(C)(C)C [2-methoxy-2-methylpropane] + COCC[N+]1(C)CCCCC1.O=S(=O)([N-]S(=O)(=O)C(F)(F)F)C(F)(F)F | 2.56 ± 0.17 | 2.59 ± 0.18 | 2.63 ± 0.18 | 2.66 ± 0.18 | 2.69 ± 0.18 | 2.73 ± 0.19 |

| Compound | activity coefficient (318.15 K) | activity coefficient (328.15 K) | activity coefficient (338.15 K) | activity coefficient (348.15 K) | activity coefficient (358.15 K) | activity coefficient (368.15 K) |
| --- | --- | --- | --- | --- | --- | --- |
| CC(C)CO [2-methyl-1-propanol] + COCC[N+]1(C)CCCCC1.O=S(=O)([N-]S(=O)(=O)C(F)(F)F)C(F)(F)F | 2.61 ± 0.18 | 2.34 ± 0.16 | 2.12 ± 0.14 | 1.92 ± 0.13 | 1.75 ± 0.12 | 1.62 ± 0.11 |
| CC(C)(C)O [2-methylpropan-2-ol] + COCC[N+]1(C)CCCCC1.O=S(=O)([N-]S(=O)(=O)C(F)(F)F)C(F)(F)F | 1.87 ± 0.13 | 1.73 ± 0.12 | 1.61 ± 0.11 | 1.5 ± 0.1 | 1.42 ± 0.09 | 1.34 ± 0.09 |
| CCC(C)CC [3-methylpentane] + COCC[N+]1(C)CCCCC1.O=S(=O)([N-]S(=O)(=O)C(F)(F)F)C(F)(F)F | 14.7 ± 0.7 | 13.9 ± 0.6 | 13.2 ± 0.6 | 12.5 ± 0.6 | 11.9 ± 0.6 | 11.5 ± 0.5 |
| C=C(C)c1ccccc1 [(1-methylethenyl)benzene] + COCC[N+]1(C)CCCCC1.O=S(=O)([N-]S(=O)(=O)C(F)(F)F)C(F)(F)F | – | 1.61 ± 0.11 | 1.66 ± 0.11 | 1.7 ± 0.11 | 1.74 ± 0.12 | 1.78 ± 0.12 |
| CC(C)=O [acetone] + COCC[N+]1(C)CCCCC1.O=S(=O)([N-]S(=O)(=O)C(F)(F)F)C(F)(F)F | 0.462 ± 0.036 | 0.471 ± 0.037 | 0.48 ± 0.037 | 0.49 ± 0.037 | 0.498 ± 0.038 | 0.507 ± 0.038 |
| CC#N [acetonitrile] + COCC[N+]1(C)CCCCC1.O=S(=O)([N-]S(=O)(=O)C(F)(F)F)C(F)(F)F | 0.471 ± 0.037 | 0.471 ± 0.037 | 0.473 ± 0.037 | 0.473 ± 0.037 | 0.474 ± 0.037 | 0.475 ± 0.037 |
| c1ccccc1 [benzene] + COCC[N+]1(C)CCCCC1.O=S(=O)([N-]S(=O)(=O)C(F)(F)F)C(F)(F)F | 0.912 ± 0.058 | 0.922 ± 0.058 | 0.934 ± 0.059 | 0.943 ± 0.059 | 0.951 ± 0.06 | 0.961 ± 0.06 |
| CCCCO [butan-1-ol] + COCC[N+]1(C)CCCCC1.O=S(=O)([N-]S(=O)(=O)C(F)(F)F)C(F)(F)F | 2.72 ± 0.19 | 2.45 ± 0.17 | 2.22 ± 0.15 | 2.01 ± 0.14 | 1.85 ± 0.12 | 1.71 ± 0.11 |
| CCC(C)O (stereo not given) [butan-2-ol] + COCC[N+]1(C)CCCCC1.O=S(=O)([N-]S(=O)(=O)C(F)(F)F)C(F)(F)F | 2.26 ± 0.15 | 2.07 ± 0.14 | 1.89 ± 0.13 | 1.74 ± 0.12 | 1.62 ± 0.11 | 1.52 ± 0.1 |
| CCCC=O [butanal] + COCC[N+]1(C)CCCCC1.O=S(=O)([N-]S(=O)(=O)C(F)(F)F)C(F)(F)F | 0.779 ± 0.051 | 0.791 ± 0.051 | 0.805 ± 0.052 | 0.817 ± 0.053 | 0.828 ± 0.053 | 0.84 ± 0.054 |
| C1CCCCCC1 [cycloheptane] + COCC[N+]1(C)CCCCC1.O=S(=O)([N-]S(=O)(=O)C(F)(F)F)C(F)(F)F | 13.3 ± 0.6 | 12.5 ± 0.6 | 11.7 ± 0.5 | 10.9 ± 0.5 | 10.2 ± 0.5 | 9.64 ± 0.44 |
| C1CCCCC1 [cyclohexane] + COCC[N+]1(C)CCCCC1.O=S(=O)([N-]S(=O)(=O)C(F)(F)F)C(F)(F)F | 9.72 ± 0.45 | 9.23 ± 0.42 | 8.71 ± 0.4 | 8.24 ± 0.38 | 7.81 ± 0.36 | 7.48 ± 0.34 |
| C1=CCCCC1 [cyclohexene] + COCC[N+]1(C)CCCCC1.O=S(=O)([N-]S(=O)(=O)C(F)(F)F)C(F)(F)F | 5.41 ± 0.37 | 5.21 ± 0.36 | 5 ± 0.34 | 4.83 ± 0.33 | 4.67 ± 0.32 | 4.53 ± 0.31 |
| C1CCCCCCC1 [cyclooctane] + COCC[N+]1(C)CCCCC1.O=S(=O)([N-]S(=O)(=O)C(F)(F)F)C(F)(F)F | 18 ± 1.2 | 16.6 ± 1.1 | 15.4 ± 1.1 | 14.3 ± 1 | 13.2 ± 0.9 | 12.4 ± 0.8 |
| C1CCCC1 [cyclopentane] + COCC[N+]1(C)CCCCC1.O=S(=O)([N-]S(=O)(=O)C(F)(F)F)C(F)(F)F | 6.73 ± 0.31 | 6.42 ± 0.29 | 6.13 ± 0.28 | 5.86 ± 0.27 | 5.63 ± 0.26 | 5.45 ± 0.25 |
